Experimental data reported in publication PMC3229304 (2011).

Target: KDM5B/JARID1B/PLU-1 (Homo sapiens, UniProt Q9UGL1)
Test: in vitro histone demethylase inhibition, Ki
Assay type: biochemical

KDM5B/JARID1B/PLU-1, sequence (Q9UGL1 whole entry): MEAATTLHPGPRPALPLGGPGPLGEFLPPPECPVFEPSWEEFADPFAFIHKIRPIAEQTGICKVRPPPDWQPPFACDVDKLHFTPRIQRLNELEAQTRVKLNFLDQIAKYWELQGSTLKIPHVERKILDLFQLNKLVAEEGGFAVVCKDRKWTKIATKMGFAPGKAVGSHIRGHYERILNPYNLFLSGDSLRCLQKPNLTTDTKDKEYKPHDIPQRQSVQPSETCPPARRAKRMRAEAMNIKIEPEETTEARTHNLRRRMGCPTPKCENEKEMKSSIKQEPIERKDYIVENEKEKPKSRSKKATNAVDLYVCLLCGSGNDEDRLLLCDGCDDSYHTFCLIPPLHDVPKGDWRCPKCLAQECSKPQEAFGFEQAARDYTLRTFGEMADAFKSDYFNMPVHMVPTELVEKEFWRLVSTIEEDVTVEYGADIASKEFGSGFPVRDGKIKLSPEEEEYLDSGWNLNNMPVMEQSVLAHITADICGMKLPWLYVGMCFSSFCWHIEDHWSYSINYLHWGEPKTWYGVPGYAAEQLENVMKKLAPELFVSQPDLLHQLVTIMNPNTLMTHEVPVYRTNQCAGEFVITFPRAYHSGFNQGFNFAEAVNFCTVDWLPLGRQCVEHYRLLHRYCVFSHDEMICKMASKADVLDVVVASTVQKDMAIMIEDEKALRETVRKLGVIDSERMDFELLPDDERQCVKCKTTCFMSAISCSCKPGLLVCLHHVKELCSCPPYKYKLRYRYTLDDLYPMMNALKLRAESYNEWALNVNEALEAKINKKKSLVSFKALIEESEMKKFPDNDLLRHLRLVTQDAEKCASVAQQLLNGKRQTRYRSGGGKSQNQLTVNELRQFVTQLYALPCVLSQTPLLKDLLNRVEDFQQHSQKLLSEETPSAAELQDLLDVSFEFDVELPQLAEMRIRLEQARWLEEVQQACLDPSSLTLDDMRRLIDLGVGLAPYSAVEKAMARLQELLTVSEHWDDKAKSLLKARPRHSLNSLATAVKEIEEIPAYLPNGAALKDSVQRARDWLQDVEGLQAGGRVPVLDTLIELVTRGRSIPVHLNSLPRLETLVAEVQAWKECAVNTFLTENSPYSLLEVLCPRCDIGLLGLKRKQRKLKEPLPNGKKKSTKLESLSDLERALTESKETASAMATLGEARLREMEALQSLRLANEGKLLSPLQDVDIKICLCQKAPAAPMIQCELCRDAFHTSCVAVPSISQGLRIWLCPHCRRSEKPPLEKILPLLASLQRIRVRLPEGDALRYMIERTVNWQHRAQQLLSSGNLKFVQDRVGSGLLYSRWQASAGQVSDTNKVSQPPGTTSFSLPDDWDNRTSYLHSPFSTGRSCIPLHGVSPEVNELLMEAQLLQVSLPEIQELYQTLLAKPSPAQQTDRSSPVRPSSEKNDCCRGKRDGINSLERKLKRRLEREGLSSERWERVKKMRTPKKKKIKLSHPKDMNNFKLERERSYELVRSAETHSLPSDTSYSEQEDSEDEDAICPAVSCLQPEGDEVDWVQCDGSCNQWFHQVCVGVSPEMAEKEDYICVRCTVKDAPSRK

Compound: O=C(O)CNC(=O)C(=O)O [N-oxalylglycine]
- Ki: 653 ± 128 µM
